Patent US4001218A, “Penicillins” (Bayer Aktiengesellschaft, priority 1972, dated 1977)

Assays:
E. coli 183/58 = experiment: MIC, test tube series dilution test, E. coli 183/58; assay type: cell-based; conditions: 24 hours, 37°C
Staph. aureus 133 = assay type: cell-based, Staphylococcus aureus; conditions: Staph. aureus 133; 24 hours, 37°C
Staph. aureus 1756 = experiment: MIC, test tube series dilution test, Staph. aureus 1756; assay type: cell-based, Staphylococcus aureus; conditions: Staph. aureus 1756; 24 hours, 37°C
E. coli C 165 = experiment: MIC, test tube series dilution test, E. coli C 165; assay type: cell-based; conditions: 24 hours, 37°C
Psdm. aerug. Walter = experiment: MIC, test tube series dilution test, Psdm. aerug. Walter; assay type: cell-based, Pseudomonas aeruginosa; conditions: Psdm. aerug. Walter; 24 hours, 37°C
Proteus vulg. 1017 = assay type: cell-based, Proteus vulgaris; conditions: Proteus 1017; 24 hours, 37°C
Klebsiella K 10 = experiment: MIC, test tube series dilution test, Klebsiella K 10; assay type: cell-based; conditions: 24 hours, 37°C
E. coli A 261 = experiment: MIC, test tube series dilution test, E. coli A 261; assay type: cell-based; conditions: 24 hours, 37°C
Enterococcus 9790 = experiment: MIC, test tube series dilution test, Enterococcus 9790; assay type: cell-based; conditions: 24 hours, 37°C
Klebsiella 63 = experiment: MIC, test tube series dilution test, Klebsiella 63; assay type: cell-based; conditions: Klebsiella 63; 24 hours, 37°C
Psdm. aerug. F 41 = experiment: MIC, test tube series dilution test, Psdm. aerug. F 41; assay type: cell-based, Pseudomonas aeruginosa; conditions: Psdm. aerug. F 41; 24 hours, 37°C
Proteus morg. 932 = experiment: MIC, test tube series dilution test, Proteus morg. 932; assay type: cell-based; conditions: 24 hours, 37°C
E. coli 14 = assay type: cell-based; conditions: E. coli 14; 24 hours, 37°C

| Structure (SMILES) | MIC (E. coli 183/58) | MIC (Staph. aureus 133) | MIC (Staph. aureus 1756) | MIC (E. coli C 165) | MIC (Psdm. aerug. Walter) | MIC (Proteus vulg. 1017) | MIC (Klebsiella K 10) | MIC (E. coli A 261) | MIC (Enterococcus 9790) | MIC (Klebsiella 63) | MIC (Psdm. aerug. F 41) | MIC (Proteus morg. 932) | MIC (E. coli 14) |
| --- | --- | --- | --- | --- | --- | --- | --- | --- | --- | --- | --- | --- | --- |
| CC1(C)S[C@@H]2[C@H](NC(=O)[C@H](NC(=O)c3ccc(NC(=O)c4ccc(N=[N+]=[N-])cc4)cc3)c3ccccc3)C(=O)N2[C@H]1C(=O)O [Example 26] | < 1 U/ml | < 1 U/ml | 64 U/ml | 4 U/ml | 16 U/ml | 16 U/ml | 16 U/ml | 256 U/ml | 16 U/ml | 4 U/ml | 16 U/ml | 8 U/ml | < 1 U/ml |
| CC1(C)S[C@@H]2[C@H](NC(=O)[C@H](NC(=O)c3cc(NC(=O)C4CCC4)ccc3Cl)c3ccccc3)C(=O)N2[C@H]1C(=O)O [Example 52] | 32-64 U/ml | < 1 U/ml | 32-64 U/ml | 128-256 U/ml | 128-256 U/ml | > 256 U/ml | 128-256 U/ml |  | 32-64 U/ml | 128-256 U/ml | 128-256 U/ml |  |  |
| CC1(C)S[C@@H]2[C@H](NC(=O)[C@H](NC(=O)c3ccc(NC(=O)C4=CCCCC4)cc3)c3ccccc3)C(=O)N2[C@H]1C(=O)O [Example 11, sodium D(-)-α-[4-(1-cyclohexene-1-carbonylamino-benzoylamino)]-benzylpenicillin] | 8 U/ml | < 1 U/ml | 128 U/ml | 8 U/ml | 32 U/ml | 64 U/ml | 64 U/ml | > 256 U/ml | 16 U/ml | 32 U/ml | 32 U/ml | 128 U/ml | 4 U/ml |
| CC1(C)S[C@@H]2[C@H](NC(=O)[C@H](NC(=O)c3ccc([N+](=O)[O-])cc3)c3ccccc3)C(=O)N2[C@H]1C(=O)O [Example 33, sodium D(-)-α-(4-nitro-benzoylamino)-benzylpenicillin] | 32 U/ml | < 1 U/ml | 32 U/ml | ~ 32 U/ml |  | 64 U/ml | 128 U/ml | > 256 U/ml | 4 U/ml | 128 U/ml | 64 U/ml | 256 U/ml | ~ 8 U/ml |
| CC1(C)S[C@@H]2[C@H](NC(=O)[C@H](NC(=O)c3ccc(NC(=O)CCN=[N+]=[N-])cc3)c3ccccc3)C(=O)N2[C@H]1C(=O)O [Example 38] | 16 U/ml | < 1 U/ml | 32 U/ml | 16 U/ml | 32 U/ml | 32 U/ml | 128 U/ml | > 256 U/ml | ~ 16 U/ml | 64 U/ml | 32 U/ml | ~ 256 U/ml | 4 U/ml |
| CC1(C)S[C@@H]2[C@H](NC(=O)[C@H](NC(=O)c3ccc(NC(=O)C4CCC=CCC4)cc3)c3ccccc3)C(=O)N2[C@H]1C(=O)O [Example 14, sodium D(-)-α-[4-(4-cycloheptene-1-carbonylamino-benzoylamino)]-benzylpenicillin] | 16 U/ml | < 1 U/ml | 32 U/ml | ~ 8 U/ml | 32 U/ml | 16 U/ml | 32 U/ml | > 256 U/ml | 8 U/ml | 32 U/ml | 32 U/ml | 256 U/ml | < 1 U/ml |
| CC1(C)S[C@@H]2[C@H](NC(=O)[C@H](NC(=O)CNC(=O)c3ccc(NC(=O)C4CCCC4)cc3)c3ccccc3)C(=O)N2[C@H]1C(=O)O [Example 66] | 64 U/ml | < 1 U/ml | 32 U/ml | 32 U/ml | 128 U/ml | 32 U/ml | 64 U/ml | > 256 U/ml | 32 U/ml | 32 U/ml | 64 U/ml | > 256 U/ml | 8 U/ml |
| CC1(C)S[C@@H]2[C@H](NC(=O)[C@H](NC(=O)c3ccc(NC(=O)c4ccc(F)cc4)cc3)c3ccccc3)C(=O)N2[C@H]1C(=O)O [Example 17] | 8 U/ml | < 1 U/ml | 32 U/ml | ~ 8 U/ml | 32 U/ml | ~ 32 U/ml | 64 U/ml | > 256 U/ml | 16 U/ml | 32 U/ml | 32 U/ml | 128 U/ml | 4 U/ml |
| CC1(C)S[C@@H]2[C@H](NC(=O)[C@H](NC(=O)c3ccc(NC(=O)c4ccc([N+](=O)[O-])cc4)cc3)c3ccccc3)C(=O)N2[C@H]1C(=O)O [Example 28, sodium D(-)-α-[4-(4-nitrobenzoylamino)-benzoylamino]-benzylpenicillin] | 4 U/ml | < 1 U/ml | ~ 32 U/ml | 4 U/ml | 16 U/ml | 16 U/ml | 16 U/ml | > 256 U/ml | 4 U/ml | 16 U/ml | 16 U/ml | 128 U/ml | < 1 U/ml |
| CC1(C)S[C@@H]2[C@H](NC(=O)[C@H](NC(=O)c3ccc(NC(=O)CC4C=CCC4)cc3)c3ccccc3)C(=O)N2[C@H]1C(=O)[O-].[Na+] (stereo partly drawn) [Example 8, sodium D(-)-α-(4-[2-cyclopentene-1-acetamido-benzoylamino])-benzylpenicillin] | 16 U/ml | < 1 U/ml | 8 U/ml | 8 U/ml | 64 U/ml | 64 U/ml | 64 U/ml | > 256 U/ml | 8 U/ml | 32 U/ml | 64 U/ml | 128 U/ml |  |
| CC1(C)S[C@@H]2[C@H](NC(=O)[C@H](NC(=O)c3ccc(NC(=O)Nc4ccccc4)cc3)c3ccccc3)C(=O)N2[C@H]1C(=O)O [Example 45] | 4 U/ml | < 1 U/ml | 16 U/ml | 8 U/ml | 16 U/ml | 16 U/ml | 32 U/ml | > 256 U/ml | < 1 U/ml | 16 U/ml | 8 U/ml | 128 U/ml | < 1 U/ml |
| CC1(C)S[C@@H]2[C@H](NC(=O)[C@H](NC(=O)c3ccc(NC(=O)C4CC=CCC4)cc3)c3ccccc3)C(=O)N2[C@H]1C(=O)O (single isomer, unassigned) [Example 12, sodium D(-)-α-[4-(3-cyclohexene-1-carbonylamino-benzoylamino)]-benzylpenicillin] | 16 U/ml | < 1 U/ml | 16 U/ml | 8 U/ml | 32 U/ml | 16 U/ml | 32 U/ml | > 256 U/ml | ~ 8 U/ml | 32 U/ml | 32 U/ml | > 256 U/ml | ~ 4 U/ml |
| CC1(C)S[C@@H]2[C@H](NC(=O)[C@H](N)c3ccccc3)C(=O)N2[C@H]1C(=O)O [Ampicillin, D(-)-α-aminobenzylpenicillin, reference compound] | 200 U/ml | < 1 U/ml | 256 U/ml | 8 U/ml | > 256 U/ml | 256 U/ml | 128 U/ml | 8 U/ml | 4 U/ml | 128 U/ml | > 256 U/ml | 256 U/ml | > 1 U/ml |
| CC1(C)S[C@@H]2[C@H](NC(=O)[C@H](NC(=O)c3ccc(NC(N)=O)cc3)c3ccccc3)C(=O)N2[C@H]1C(=O)O [Example 30, sodium D(-)-α-(4-carbamoylaminobenzoylamino)-benzylpenicillin] | 256 U/ml | < 1 U/ml | 64 U/ml | 32 U/ml | > 256 U/ml | > 256 U/ml | > 256 U/ml | > 256 U/ml | 8 U/ml | 256 U/ml | 128 U/ml | > 256 U/ml | ~ 32 U/ml |
| CC1(C)S[C@@H]2[C@H](NC(=O)[C@H](NC(=O)c3ccc(NC(=O)CN=[N+]=[N-])cc3)c3ccccc3)C(=O)N2[C@H]1C(=O)O [Example 36] | 32 U/ml | < 1 U/ml | 64 U/ml | ~ 16 U/ml | ~ 64 U/ml | 128 U/ml | 128 U/ml | > 256 U/ml | 8 U/ml | 64 U/ml | 32 U/ml |  | 8 U/ml |
